Measured values published in patent US4310518A, “Cyclic hexapeptide somatostatin analogs” (Merck & Co., Inc., priority 1980, dated 1982).
Square brackets hold non-standard residues; d marks the D form. Peptide text beside a SMILES is read from it. NMeF = CN[C@@H](Cc1ccccc1)C(=O)O; NMeI = CC[C@H](C)[C@H](NC)C(=O)O; NMeL = CN[C@@H](CC(C)C)C(=O)O; NMeA = CN[C@@H](C)C(=O)O; dNMeA = CN[C@H](C)C(=O)O; Sar = CNCC(=O)O

What was measured:
[1] = test system: growth hormone release from rat pituitary cells; assay: In vitro test for the inhibition of growth hormone release in cultured rat pituitary cells; type: cell-based; conditions: multiples or fractions of the effect of somatostatin (=1), fiducial limits in parentheses, 4 hours incubation
Experimental: The instant cyclic hexapeptide analogs of somatostatin are tested and compared with the effects of somatostatin in an in vitro test for the inhibition of growth hormone. The test is described as follows:
Rat pituitaries were isolated according to the procedures of Vale and Grant "In vitro Pituitary Hormone Secretion Assay for Hypophysiotropic Substances" in Methods in Enzymology. Vol. XXXVII, eds. O'Malley, B. W. and Hardman, J. G. (Academic Press, Inc., New York) pp. 5-93 (1975).
After 4 days in culture, the cells were washed and incubated for 4 hours in Dulbecco-modified Eagle's medium in the presence or absence of graded doses of each analog of somatostatin. The medium was then collected for subsequent growth hormone determination by a double antibody radioimmunoassay for rat growth hormone."
The test results for some of the compounds of this invention are recorded below with the results for somatostatin listed first and given the arbitrary value of 1. The results for the instant compounds are given as multiples or fractions of the effect of somatostatin. The numbers in parentheses are the fiducial limits for the number preceding. The first of the instant compounds listed is the compound prepared in Examples 1-5. The compound is written slightly different, however, to conform to the order of the amino acids found in somatostatin.

[2] = test system: pentagastrin evoked gastric secretion; assay: Inhibition of pentagastrin evoked gastric secretion in the chronic fistula dog; type: in vivo; conditions: Dose 0.8 μg/ml./min., infusion 0-60 min., relative to placebo; for Gastric Secretion % Inhibition Acid Concentration 0-30 / Gastric Secretion % Inhibition Vol. 0-30: 0-30 min; for Gastric Secretion % Inhibition Acid Concentration 30-60 / Gastric Secretion % Inhibition Vol. 30-60: 30-60 min; for Gastric Secretion % Inhibition Acid Concentration 60-90 / Gastric Secretion % Inhibition Vol. 60-90: 60-90 min; for Gastric Secretion % Inhibition Acid Concentration 90-120 / Gastric Secretion % Inhibition Vol. 90-120: 90-120 min; for Gastric Secretion % Inhibition Vol. 0-30 / Gastric Secretion % Inhibition Vol. 30-60 / Gastric Secretion % Inhibition Vol. 60-90 / Gastric Secretion % Inhibition Vol. 90-120: output volume
Experimental: The effects of the instant cyclichexapeptide analogs of somatostatin are determined by the following procedure.
Compounds were tested for their ability to inhibit pentagastrin evoked gastric secretion in the chronic fistula dog. Female beagle dogs with a chronic gastric fistula were given pentagastrin (2.5 μg./kg./hour, i.v. from -60 to 120 min.) and gastric outputs were collected via the fistula cannula. Samples were analyzed at 30 minute intervals for volume (ml.) and titratable acid (mEq/L) (Titration to pH 7 with 0.01 N NaOH); total acid output (mEq) was calculated as the production of output volume and acid concentration. Test compounds were infused at a constant rate from 0 to 60 minutes. Data have been expressed as percent change of total acid output relative to a placebo trial in the same animals.

C[C@@H](O)[C@@H]1NC(=O)[C@H](CCCCN)NC(=O)[C@@H](Cc2c[nH]c3ccccc23)NC(=O)[C@H](Cc2ccccc2)NC(=O)[C@H](C)N(C)C(=O)[C@H](Cc2ccccc2)NC1=O [Cyclo(D-Trp-Lys-Thr-Phe-N-Me-Ala-Phe)] (cyclo(F[NMeA]F[dW]KT))
Growth Hormone Release Inhibition In Vitro [1]: 4.38(2.15-11.90)
Gastric Secretion % Inhibition Acid Concentration 0-30 [2]: 15%
Gastric Secretion % Inhibition Acid Concentration 30-60 [2]: 41%
Gastric Secretion % Inhibition Acid Concentration 60-90 [2]: 47%
Gastric Secretion % Inhibition Acid Concentration 90-120 [2]: 48%
Gastric Secretion % Inhibition Vol. 0-30 [2]: 91%
Gastric Secretion % Inhibition Vol. 30-60 [2]: 92%
Gastric Secretion % Inhibition Vol. 60-90 [2]: 90%
Gastric Secretion % Inhibition Vol. 90-120 [2]: 84%

C[C@H]1C(=O)N[C@@H](Cc2c[nH]cn2)C(=O)N[C@H](Cc2c[nH]c3ccccc23)C(=O)N[C@@H](CCCCN)C(=O)N[C@@H](CO)C(=O)N[C@@H](Cc2ccc(O)cc2)C(=O)N1C [Cyclo(N--Me--Ala--His--D-Trp-- Lys--Ser--Tyr)] (cyclo(H[dW]KSY[NMeA]))
Growth Hormone Release Inhibition In Vitro [1]: 0.38(0.16-0.75)

C[C@@H]1C(=O)N[C@@H](Cc2ccccc2)C(=O)N[C@H](Cc2c[nH]c3ccccc23)C(=O)N[C@@H](CCCCN)C(=O)N[C@@H]([C@@H](C)O)C(=O)N[C@@H](Cc2ccccc2)C(=O)N1C [Cyclo(N--Me--D-Ala-- Phe--D-Trp-- Lys--Thr--Phe)] (cyclo(F[dNMeA]F[dW]KT))
Growth Hormone Release Inhibition In Vitro [1]: 2.13(0.83-6.00)
Gastric Secretion % Inhibition Acid Concentration 0-30 [2]: 12%
Gastric Secretion % Inhibition Acid Concentration 30-60 [2]: 34%
Gastric Secretion % Inhibition Acid Concentration 60-90 [2]: 9%
Gastric Secretion % Inhibition Acid Concentration 90-120 [2]: 0%
Gastric Secretion % Inhibition Vol. 0-30 [2]: 50%
Gastric Secretion % Inhibition Vol. 30-60 [2]: 84%
Gastric Secretion % Inhibition Vol. 60-90 [2]: 0%
Gastric Secretion % Inhibition Vol. 90-120 [2]: 0%

CC[C@H](C)[C@H]1C(=O)N[C@@H](Cc2ccccc2)C(=O)N[C@H](Cc2c[nH]c3ccccc23)C(=O)N[C@@H](CCCCN)C(=O)N[C@@H]([C@@H](C)O)C(=O)N[C@@H](Cc2ccccc2)C(=O)N1C [Cyclo(N--Me--Ile--Phe--D-Trp-- Lys--Thr--Phe)] (cyclo(F[NMeI]F[dW]KT))
Growth Hormone Release Inhibition In Vitro [1]: 1.86(1.35-2.57)

CC(C)C[C@H]1C(=O)N[C@@H](Cc2ccccc2)C(=O)N[C@H](Cc2c[nH]c3ccccc23)C(=O)N[C@@H](CCCCN)C(=O)N[C@@H]([C@@H](C)O)C(=O)N[C@@H](Cc2ccccc2)C(=O)N1C [Cyclo(N--Me--Leu--Phe--D-Trp-- Lys--Thr--Phe)] (cyclo(F[NMeL]F[dW]KT))
Growth Hormone Release Inhibition In Vitro [1]: 0.49(0.19-0.98)

C[C@@H](O)[C@@H]1NC(=O)[C@H](CCCCN)NC(=O)[C@@H](Cc2c[nH]c3ccccc23)NC(=O)[C@H](Cc2ccccc2)NC(=O)[C@H](Cc2ccccc2)N(C)C(=O)[C@H](Cc2ccccc2)NC1=O [Cyclo(N--Me--Phe--Phe--D-Trp-- Lys--Thr--Phe)] (cyclo(F[NMeF]F[dW]KT))
Growth Hormone Release Inhibition In Vitro [1]: 13.3(9.6-18.1)

C[C@H]1C(=O)N[C@@H](Cc2c[nH]cn2)C(=O)N[C@H](Cc2c[nH]c3ccccc23)C(=O)N[C@@H](CCCCN)C(=O)N[C@@H](CO)C(=O)N[C@@H](Cc2c[nH]c3ccccc23)C(=O)N1C [Cyclo--(N--Me--Ala--His--D-Trp-- Lys--Ser--Trp)] (cyclo(H[dW]KSW[NMeA]))
Growth Hormone Release Inhibition In Vitro [1]: 1.45(0.9-2.06)

CC(C)[C@@H]1NC(=O)[C@H](CCCCN)NC(=O)[C@@H](Cc2c[nH]c3ccccc23)NC(=O)[C@H](Cc2ccc(O)cc2)NC(=O)[C@H](C)N(C)C(=O)[C@@H](Cc2ccccc2)NC1=O [Cyclo--(N--Me--Ala--Tyr--D-Trp-- Lys--Val--D-Phe)]
Growth Hormone Release Inhibition In Vitro [1]: 5.0(3.12-8.17)

CC(C)[C@@H]1NC(=O)[C@H](CCCCN)NC(=O)[C@@H](Cc2c[nH]c3ccccc23)NC(=O)[C@H](Cc2ccc(O)cc2)NC(=O)[C@H](C)N(C)C(=O)[C@H](Cc2ccccc2)NC1=O [Cyclo--(N--Me--Ala--Tyr--D-Trp-- Lys--Val--Phe)]
Growth Hormone Release Inhibition In Vitro [1]: 52(35-75)

CC(C)[C@@H]1NC(=O)[C@H](CCCCN)NC(=O)[C@@H](Cc2c[nH]c3ccccc23)NC(=O)[C@H](Cc2ccc(O)cc2)NC(=O)[C@H](C)N(C)C(=O)[C@H](Cc2c[nH]c3ccccc23)NC1=O [Cyclo--(N--Me--Ala--Tyr--D-Trp-- Lys--Val--Trp)] (cyclo(KVW[NMeA]Y[dW]))
Growth Hormone Release Inhibition In Vitro [1]: 26.9(17.2-40.3)

C[C@@H](O)[C@@H]1NC(=O)[C@H](CCCCN)NC(=O)[C@@H](Cc2c[nH]c3ccccc23)NC(=O)[C@H](Cc2ccccc2)NC(=O)CN(C)C(=O)[C@H](Cc2ccccc2)NC1=O [Cyclo--(Sar--Phe--D-Trp-- Lys--Thr--Phe)] (cyclo(F[Sar]F[dW]KT))
Growth Hormone Release Inhibition In Vitro [1]: 1.47(0.93-2.3)

Cyclo--(N--Me--Ala--O--I--Phe--D-Trp-- Lys--Val--Phe)
Growth Hormone Release Inhibition In Vitro [1]: 13.9(9.5-20.0)

Cyclo--(N--Me--Ala--O--Phe--D-Trp-- Lys--Val--L--Trp)
Growth Hormone Release Inhibition In Vitro [1]: 22.9(15.0-33.6)

Cyclo--(N--Me--Ala--Phe--D-Trp-- Lys--The--O--I--Phe)
Growth Hormone Release Inhibition In Vitro [1]: 12.1(5.2-23.4)

Cyclo--(N--Me--OABU--Phe--D-Trp-- Lys--Thr--Phe)
Growth Hormone Release Inhibition In Vitro [1]: 24.6(15.3-46.5)
